# In ChEMBL document CHEMBL1201862, “PubChem BioAssay data set” (2004):
#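 All cell lines were grown in 96-well plates and treated with compound for 48 hours. GI50 marks 50% less growth.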 The source made the active and inactive calls. Rule as the data show it: active = GI50 up to about 1.1 µM and inactive = higher.
# How the values were obtained:
# Test in all cases: growth of human tumour cells (NCI), 48 h
# 786-0 = tested on: 786-0
# A549 = tested on: A549
# ACHN = tested on: ACHN
# CCRF-CEM = tested on: CCRF-CEM
# HCT-15 = tested on: HCT-15
# HL-60 = tested on: HL-60
# HOP-92 = tested on: HOP-92
# HT-29 = tested on: HT-29
# K562 = tested on: K562
# NCI-H226 = tested on: NCI-H226
# OVCAR-4 = tested on: OVCAR-4
# SN12C = tested on: SN12C
# SNB-19 = tested on: SNB-19
# SR = tested on: SR
# SW-620 = tested on: SW-620
# UACC-62 = tested on: UACC-62
# UO-31 = tested on: UO-31
# MDA-MB-231 = tested on: MDA-MB-231
# PC-3 = tested on: PC-3
Compound,GI50 (786-0),GI50 (A549),GI50 (ACHN),GI50 (CCRF-CEM),GI50 (HCT-15) [µM],GI50 (HL-60),GI50 (HOP-92),GI50 (HT-29),GI50 (K562),GI50 (NCI-H226),GI50 (OVCAR-4),GI50 (SN12C),GI50 (SNB-19),GI50 (SR),GI50 (SW-620),GI50 (UACC-62),GI50 (UO-31),GI50 (MDA-MB-231),GI50 (PC-3)
COc1cc(/C=C2\N=C(c3ccccc3)N(c3cc4cc(Sc5ccccc5)ccc4[nH]3)C2=O)ccc1O,9.59 µM (inactive),> 50 µM (inactive),7.46 µM (inactive),2.69 µM (inactive),2.86,1.39 µM (inactive),6.12 µM (inactive),3.51 µM (inactive),1.97 µM (inactive),> 50 µM (inactive),35 µM (inactive),7.87 µM (inactive),> 50 µM (inactive),2.12 µM (inactive),3.58 µM (inactive),0.188 µM (active),15.6 µM (inactive),–,–
CC[C@@]1(O)C(=O)OCc2c1cc1n(c2=O)Cc2c-1nc1ccccc1c2/C=N\NC(=O)C(N)Cc1ccc(O)cc1 (stereo partly drawn),0.374 µM (active),0.815 µM (active),0.133 µM (active),< 0.0236 µM (active),4.32,0.146 µM (active),1.27 µM (inactive),1.36 µM (inactive),0.531 µM (active),0.15 µM (active),6.61 µM (inactive),0.228 µM (active),0.267 µM (active),< 0.0188 µM (active),1.52 µM (inactive),0.209 µM (active),0.619 µM (active),15.8 µM (inactive),–
CC(C)(C)n1c(=O)[nH]n(C2NN=Cc3cccc4cccc2c34)c1=O (stereo not drawn),57.1 µM (inactive),18.7 µM (inactive),–,11.5 µM (inactive),31.3,12.9 µM (inactive),–,20.4 µM (inactive),17.9 µM (inactive),23.2 µM (inactive),42.6 µM (inactive),79.3 µM (inactive),34.9 µM (inactive),11.4 µM (inactive),47.3 µM (inactive),23.9 µM (inactive),14.1 µM (inactive),21.5 µM (inactive),31.8 µM (inactive)
[O-][S+](Cc1ccccc1)c1nc2ccccc2nc1-c1cccs1 (stereo not drawn),11.3 µM (inactive),15.2 µM (inactive),13.9 µM (inactive),4 µM (inactive),9.29,3.49 µM (inactive),15.6 µM (inactive),11.7 µM (inactive),5.38 µM (inactive),4.06 µM (inactive),5.78 µM (inactive),14 µM (inactive),18.2 µM (inactive),–,–,–,24.8 µM (inactive),–,–
NNC(=O)c1c(-c2cccnc2)cnc2ccccc12,> 100 µM (inactive),> 100 µM (inactive),> 100 µM (inactive),> 100 µM (inactive),> 100,> 100 µM (inactive),> 100 µM (inactive),> 100 µM (inactive),> 100 µM (inactive),> 100 µM (inactive),> 100 µM (inactive),> 100 µM (inactive),> 100 µM (inactive),> 100 µM (inactive),> 100 µM (inactive),> 100 µM (inactive),> 100 µM (inactive),–,> 100 µM (inactive)
O=C1C=C2CC[C@H]3[C@@H]4CC[C@H](Oc5c6ccccc6nc6ccccc56)[C@H]4CC[C@@H]3[C@H]2CC1,91.2 µM (inactive),54.1 µM (inactive),48.4 µM (inactive),18.5 µM (inactive),24.7,12.2 µM (inactive),13.3 µM (inactive),36.7 µM (inactive),32.7 µM (inactive),60.7 µM (inactive),52.7 µM (inactive),55.3 µM (inactive),> 100 µM (inactive),–,51.8 µM (inactive),16.7 µM (inactive),–,41.3 µM (inactive),33.4 µM (inactive)
COC(=O)C(N)CCCC(N)C(=O)NC(C)C(=O)NC(CCC(=O)NCCCNc1ccc([N+](=O)[O-])c2[nH]c3ccccc3c(=O)c12)C(N)=O (stereo not drawn),4.53 µM (inactive),3.13 µM (inactive),3.68 µM (inactive),3.9 µM (inactive),3.67,–,11.4 µM (inactive),–,6.67 µM (inactive),9.55 µM (inactive),6.15 µM (inactive),–,4 µM (inactive),–,3.7 µM (inactive),2.42 µM (inactive),3.49 µM (inactive),10.1 µM (inactive),5.56 µM (inactive)
Cc1[nH]n(-c2nc3c(c(=O)[nH]2)CCCC3)c(=O)c1CCO,> 100 µM (inactive),> 100 µM (inactive),> 100 µM (inactive),> 100 µM (inactive),> 100,> 100 µM (inactive),–,> 100 µM (inactive),> 100 µM (inactive),> 100 µM (inactive),> 100 µM (inactive),> 100 µM (inactive),> 100 µM (inactive),–,> 100 µM (inactive),> 100 µM (inactive),> 100 µM (inactive),> 100 µM (inactive),> 100 µM (inactive)
